Experimental data reported in patent publication US12486227B2, “Small molecules for cancer therapy that reduce the expression of transcription factors KLF5 and EGR-1” (University of Florida Research Foundation, Incorporated, priority 2019, dated 2025).
Read-outs that look alike come from different tables or passages of the source.

Assays:
[1] = tested on: major human CYP450 liver enzymes; assay: Inhibition of human CYP450 liver enzymes; format: in vitro ADME
DLD-1-derived xenografts = assay: Histology, immunofluorescence and immunohistochemistry of DLD-1-derived xenografts; format: in vivo, mouse
Procedure: SR18862 inhibits the growth of CRC xenografts in vivo. To evaluate SRI8662 in an in vivo model we used CRC cells for a mouse xenograft study. As described in more detail in the Examples section, nude mice were injected with DLD-1 CRC cells. Tumors were allowed to grow to an approximate size of 100 mm^3, and then mice were injected with vehicle or with varied concentrations of SR18662, given once a day or twice a day for five days, followed by two days without injection, and then followed by five days with injections. The experiment was completed the day after the last injection. […] Significant differences in tumor size are apparent at the end of the treatment schedule (FIG. 6B). To further characterize the impact of SR18662 on the features of isolated tumors, we compared vehicle-treated mice with mice that had been treated with SR18662 twice a day. […] Because SR18662 had induced cell apoptosis and death in the in vitro setting, we stained the xenografts with PanCK and TUNEL to estimate the levels of apoptosis in the in vivo context.
Immunofluorescence and immunohistochemistry. Tumors dissected from mice were first fixed in Bouin's fixative (50% ethanol+5% acetic acid in water) for 1 h, then fixed overnight in 10% buffered formalin (Fisher Scientific). The tissues were then paraffin-embedded using an automated processor, sectioned at 5 μm, collected onto charged slides and baked in a 65° C. oven overnight, and were subsequently deparaffinized in xylene. […]
Tissue sections were first incubated with blocking buffer (5% BSA in TBS-Tween) for 30 min at 37° C. and then with primary antibody at 4° C. overnight in a humidified chamber with gentle shaking. […] Slides were analyzed under a Nikon Eclipse 90i microscope (Nikon) and representative photomicrographs were taken. […]

[2] = tested on: DLD-1, HCT-116, HT-29, and SW-620 colorectal cancer cell lines; assay: MTT assays for blocking growth of colorectal cancer cell lines (range over four lines); format: cell-based; conditions: Homo sapiens; DLD-1, HCT-116, HT-29, SW-620
Excerpt: (§1) The observed activity is greater than that previously seen for ML264.

[3] = Oral bioavailability in mice; format: in vivo
[4] = tested on: DLD-1 and HCT116 CRC cells; assay: Cell cycle analysis by flow cytometry (propidium iodide); format: cell-based, human; conditions: 10 μM, over three days, vs vehicle, ML264, SR15006
Procedure: SR18662 alters the cell cycle pattern of CRCs. […] We have also evaluated the impact of SR15006 and SR18662 on cell cycle progression. We treated DLD-1 and HCT116 CRC cells over the course of three days with vehicle or 1 μM or 10 μM of test compound and then analyzed cell cycle using flow cytometry.
Cell proliferation, cell cycle and apoptosis assays. For cell proliferation experiments, cell cycle, and apoptosis determination, DLD-1 and HCT116 cells were treated with 1 or 10 μM of each compound or with vehicle (DMSO). The cells were collected at 24, 48, and 72 h post-treatment and analyzed as previously described (24). Each experiment was performed in triplicate.

[5] = tested on: DLD-1, HCT116, HT29, and SW620 cells; assay: Cell viability (Cell Titer-Glo) of four CRC cell lines; format: cell-based, human; conditions: 24 h, FIGS. 2A-C
Procedure: SR18662 is potent inhibitor of CRC cell growth in vitro. […]. To examine the impact of these compounds on viability of CRC cell lines, we performed cell proliferation and cell growth assays using DLD-1 and HCT116 CRC cells. […] […]. Cell viability. DLD-1, HCT116, HT29, and SW620 cells were seeded in 96 well plate format and treated with DMSO or with compounds dissolved in DMSO in the range of 0.001 to 20 μM final concertation for 24 h and analyzed with the Cell Titer-Glo luciferase assay system (Promega) using a SpectraMax M3 (Molecular Devices) plate reader. The IC50 values were calculated using GraphPad Prism version 5.00 for Windows (GraphPad Software).

[6] = tested on: HCT-116 colorectal cancer cell line; assay: MTT growth assay, HCT-116; format: cell-based; conditions: Homo sapiens, Table 1
Excerpt: as §1

[7] = tested on: SW-620 colorectal cancer cell line; assay: MTT growth assay, SW-620; format: cell-based; conditions: Homo sapiens, Table 1
Excerpt: as §1

DLD-1 colon cancer cells = assay: MTT viability assay, DLD-1; format: cell-based; conditions: Homo sapiens
Excerpt: Specific Examples of compounds of the present disclosure have EC50 values estimated using a cell-based assay for binding to the KLF5 promoter and, in many cases, a follow-up viability assay (MTT) using DLD-1 colon cancer cells, a cell line known to highly express KLF5 and whose growth is adversely affected by the reduction of KLF5 levels. Assay protocols follow those described in the literature.^22,23 Other assays that are not described here but that are standard in the field may also be useful in establishing mechanism of action of these compounds.

KLF5 = assay: Western blot of KLF5 protein levels in DLD-1 cells; format: cell-based, human; conditions: 1 μM and 10 μM, 24 h
Procedure: In this experiment the test compounds were at 1 μM and 10 μM, and protein levels were measured after 24 h.
Western blot analysis. Total protein was extracted from cells with Laemmli buffer and the analysis was performed as described previously (24).

[8] = 25 mg/kg twice per day vs vehicle

CS(=O)(=O)N1CCN(C(=O)CNC(=O)/C=C/c2ccc(Cl)c(Cl)c2)CC1 [Example 9, (E)-3-(3,4-dichlorophenyl)-N-(2-(4-(methylsulfonyl)piperazin-1-yl)-2-oxoethyl)acrylamide]
inhibition of major human CYP450 liver enzymes [1]: does not inhibit | expression levels of KLF5 and EGR1 in xenografts (DLD-1-derived xenografts; 25 mg/kg twice a day, immunohistochemistry): significantly decreased | TUNEL staining in xenografts (DLD-1-derived xenografts; [8]): increase of TUNEL staining | fibrosis (PanCK/Vimentin stain) in xenografts (DLD-1-derived xenografts; [8]): higher level of fibrosis | EC50 [2]: 1.74 nM | oral bioavailability [3]: orally bioavailable | subG1 population [4]: significant increase in the number of cells within the subG1 population | cell viability IC50 relative to ML264 and SR15006 [5]: about one log unit lower than those for ML264 and SR15006 | EC50 [6]: 22 nM | EC50 [7]: 22 nM | EC50 (DLD-1 colon cancer cells; MTT, Table 1, read-out: EC50 (nM) DLD-1): 1.7 nM | EC50 (DLD-1 colon cancer cells; Table 2, read-out: Approximate potency (EC50 · mol/L) (DLD1, MTT assay)): 1.68 nM | KLF5 protein levels by Western blot (KLF5): significantly reduced
